In ChEMBL document CHEMBL1133029, “Synthesis of hybrid distamycin-cysteine labeled with 99mTc: a model for a novel class of cancer imaging agents” (Bioorg Med Chem Lett, 2000):

What was measured:
[1] = test system: K562; test: Concentration required for inhibitory activity was evaluated against human leukemic K562 cell line; format: functional, cell-based
[2] = test system: L1210; test: Inhibitory activity against L1210 murine leukemic cell line after 48 hr of exposure to compound; format: functional, cell-based; conditions: Mus musculus, L1210, 48 h

| Compound | Concentration [1] [µM] | IC50 [2] [µM] |
| --- | --- | --- |
| Cn1cc(NC(=O)c2cc(NC(=O)c3cc(NC=O)cn3C)cn2C)cc1C(=O)NCCC(=N)N | 12 | 9.64 |
| Cn1cc(NC(=O)c2cc(NC(=O)c3cc(NC(=O)[C@@H](N)CS)cn3C)cn2C)cc1C(=O)NCCC(=N)N | 10 | 7.96 |
